According to patent publication US6548543B1, “Remedies or preventives containing cyclopentenone compounds as the active ingredient” (Takara Shuzo Co., Ltd., priority 1998, dated 2003):

System: delayed hypersensitivity pedal edema
Test: Delayed hypersensitivity (DTH) with sheep erythrocytes
Assay type: in vivo, C57BL/6 mice
Settings: once a day for 3 days
Experimental: C57BL/6 mice (male, 7 weeks old, weighing about 25 g) were purchased from Japan SLC and pre-bred for 1 week before using in experiments.
Sheep erythrocytes (Shimizu Laboratory Supplies) as raising antigens were washed three times with saline (Otsuka Pharmaceutical) and suspended in saline at a concentration of 1×10^9 cells/ml. 200 μl of the suspension was intraperitoneally injected into the mouse for sensitization with the antigen. 40 μl of similarly prepared antigen was injected to the sole of right paw 5 days after the sensitization for antigenic induction to induce pedal edema.
Dipropionylcyclopentenone dissolved in saline at a varying concentration was intraperitoneally or orally administered to 5 mice per group once a day for 3 days from the day of sensitization with the antigen. The volume of the right foot of the mouse was measured using an instrument for measuring pedal volume (Ugo Basile) 2 days after the antigenic induction and used as an index of DTH. The measurements were expressed as the rate of increase calculated according to the following equation based on the volume of the right foot of each mouse measured before the antigenic induction.
Rate of increase=(volume of right foot after antigenic induction−volume of right foot before antigenic induction)/volume of right foot before antigenic induction

With `CCC(=O)OC1C=CC(=O)C1OC(=O)CC` (stereo not drawn) the “Suppression of edema in foot, DTH (FIG. 6)” value (“Suppression of edema in foot” for short) (1 mg/kg intraperitoneal) was “Tendency to suppress the edema in the foot”, the “Suppression of edema in foot” value (10 mg/kg intraperitoneal) was “significant suppression” and the “Suppression of edema in foot” value (30 mg/kg oral) was “significant suppression”.
